The source of these data is a melting point compilation (Tetko et al.; mined from patent text by program, amines drawn as free bases though some values may be those of a salt).

The structures appear in SMILES notation. Some results are limits rather than exact numbers.

`CSc1[nH]n(C2CCCC2)c2nc(-c3ccncc3)nc(=O)c1-2`: the melting point – broadly, the temperature of the solid-liquid transition – was 272 to 274 °C.
The figure for `CCn1c(-c2ccc(Cl)cc2)nn(C)c1=O` is 73 to 75 °C.
Consider `CC[C@]12CC[C@H]3[C@@H](CC(C)C4=CC(=O)CC[C@@H]43)[C@@H]1CCC2=O` (stereo partly drawn), for which the melting point was in the range of 141 to 149 °C.
In the case of `CN(C)c1ccc(-c2nnc(N(C)C)nc2-c2ccc(N(C)C)cc2)cc1`, the melting point was in the range of 170 to 172 °C.
In the case of `COc1ccc(Cc2ccc3[nH]c(=S)[nH]c3c2)c(O)c1`, the melting point lay within 248 to 250 °C.
On to `CCCc1nc2c(N)nc3ccccc3c2n1CCc1cc(-c2ccc(F)cc2)no1`, for which the melting point was 208 to 209 °C.
The figure for `O=C(O)CCCN(C(=O)c1ccccc1O)C(c1ccccc1)c1ccccc1` is 162 to 163 °C; for `O=C(O)CCc1ccc(Sc2ccc(CCC(=O)O)cc2C(F)(F)F)c(C(F)(F)F)c1` it is 175 to 178 °C; for `CC(=O)Nc1ccc(SC2SCC(OC(C)=O)C(OC(C)=O)C2OC(C)=O)cc1` (stereo not drawn) it is 168 to 174 °C.
Molecule `CCCCCCCCCCCCCCCC(=O)OCC(COC(=O)CCCCCCCCCCCCCCC)OC(=O)C1C=CC=CC1(O)C(C)=O` (stereo not drawn) gave a melting point of 43 to 44 °C.
In turn, `CCOC(=O)C1=C(C)NC(C)=C(C(=O)OC(C)C)C1c1cccc2ccccc12` (stereo not drawn) registered a melting point of 167 °C.
The result for `COc1cc2c(cc1OC)-c1n[nH]c(Nc3cc(Cl)cc(Cl)c3)c1C2` reads above 270 °C; that for `COC(=O)c1ccc2c(c1)SCCC2O` (stereo not drawn), 79 to 81 °C; that for `CC(=O)OCc1ccc(N(c2ccccc2)c2ccccc2)cc1`, 86 to 89 °C.
For `CCS(=O)(=O)c1cc2c(cc1OC)CCn1c3c(c(-c4cccs4)c1-2)CCCCN(C(C)(C)C)C3=O`, the melting point was in the range of 223 to 224 °C.
Consider `CC1(C)CCC(C)(C)c2cc(C(O)C(=O)Nc3ccc(C(=O)O)cc3)ccc21` (stereo not drawn), for which the melting point is 220 to 221 °C.
The result for `C=C(C)COc1c(C)c(CCC=O)c2c(c1C)CC(C)(C)O2` reads 55.5 to 56 °C; that for `Cc1ccc(C(C#N)=NOS(C)(=O)=O)cc1C`, 91 to 95 °C.
With `COc1ccc(C=CC(=O)O)cc1-c1cc2c(cc1OCCCCCCCC(=O)OC(C)(C)C)C(C)(C)CCC2(C)C`, the melting point lay within 126 to 128 °C.
`O=C1c2c(cc(O)c(Cl)c2Cl)CC1C1CCCC1` (stereo not drawn): the melting point lay within 222 to 225 °C.
Molecule `CC1Nc2ccc(S(=O)(=O)N3CCCCC3)cc2S(=O)(=O)N1` (stereo not drawn) yielded a melting point of 255 to 256 °C.
`CCOC(=O)Nc1nc2cc(C(O)c3ccccc3)ccc2[nH]1` (stereo not drawn) had a melting point above 315 °C.
The result for `O=c1ccn(-c2ccccc2Cl)nc1-c1ccnn1-c1ccccc1` reads 138 to 139 °C.
In turn, `Cc1ccc(-c2ccc3c(c2)C=C(C(=O)Nc2ccc(CN(C)C4CCOCC4)cc2)CCC3)cc1` registered a melting point of 161 to 162 °C.
Molecule `Cc1nc2sc3c(NCCCN4CCCC4=O)ncnc3c2c2c1CCC(C)(C)C2` had a melting point of 205 to 206 °C.
Molecule `COC(=O)C(O)C1(O)CCC2C3CCC4=CC(=O)C=CC4(C)C3C(O)CC21C` (stereo not drawn) registered a melting point of 171 to 173 °C.
Take `Cc1ccc2c(c1)S/C(=C(/N)c1ccccc1)C2=O`: the melting point was in the range of 166 to 167 °C.
Turning to `O=c1c2ccccc2sc2c(OCc3ccccc3)ccc(Cl)c12`, the melting point is 139 to 140 °C.
`Cc1cc(S)n2nc(S(=O)(=O)O)nc2n1`: the melting point was in the range of 254 to 256 °C.
In the case of `CN(C)C(=O)C(C)(C)c1cc(C#N)ccc1O`, the melting point lay in the range of 146 to 148 °C.
`CCOC(=O)C(O)=Cc1cc(CCc2ccc(F)cc2)ccn1` displayed a melting point of 129 to 130 °C.
For the molecule `O=C(NC1=NN(c2ccc(C(=O)C(F)(F)F)cc2)CC1)C(F)(F)F`, the melting point fell in the range of 228 to 230 °C.
`COC(=O)C(O)NC(=O)OC(C)(C)C` (stereo not drawn) yielded a melting point of 96 to 97 °C.
The figure for `CCCCCP(=O)(CC(=O)OC)OCc1ccc(-c2ccccc2C(=O)O)cc1` (stereo not drawn) is 101 to 102 °C.
For `COc1ccc(S(=O)(=O)Nc2ccccc2Nc2ccccn2)cc1`, the melting point was in the range of 113 to 116 °C.
`Cc1nc(N)nc(N)c1N=Nc1cccc(Cl)c1` displayed a melting point of 249 °C.
Regarding `C#CCn1c(=O)[nH]c(=O)n(-c2cc(N3C(=O)C4=C(CCCC4)C3=O)c(F)cc2Cl)c1=O`, the melting point was 127 to 135 °C.
`CN(CCOc1ccc(Cl)c2c1CC(=O)N2)c1cccs1` showed a melting point of 203 to 204 °C.
Molecule `O=C1CC(=C[N+](=O)[O-])Nc2ccc(Cl)cc2N1c1ccccc1` had a melting point of 248 to 251 °C.
In turn, `CCN1CCC(=O)N(c2ccccc2F)C1=S` registered a melting point of 101 to 104 °C.
The result for `CCCc1c(OCCCOc2cccc3c2CCCC3)ccc2c1OC(CCCC(O)CO)(CCCC(O)CO)CC2=O` (stereo not drawn) reads 87 to 88 °C; that for `C=CCSc1nc(N)nc2c1ncn2[C@@H]1C[C@H](CO)[C@@H](O)C1`, 133 to 134 °C.
`O=C(CC(C(=O)O)C1CCCCC1)Nc1cccc(/C=C/c2nc(C3CCC3)cs2)c1` (stereo not drawn) came in with a melting point of 205 to 207 °C.
Take `CCCCc1ncc(/C=C(\Cc2cccs2)C(=O)O)n1Cc1ccc(C#N)cc1`: the melting point is 190 to 192 °C.
As for `O=C1CN=C(c2ccccc2)O1`, the melting point is 83 to 86 °C.
In turn, `COc1cc(C)c(C(=O)c2c(Cl)cccc2Cl)cc1OC(C)(C)C` gave a melting point of 102 °C.
As to `CC1(C)CCC(C)(C)C2=C1CC(Cl)C(C)(O)C2` (stereo not drawn), the melting point was 122 to 124 °C.
For the molecule `Cc1cccc2cc(CN(Cc3cc(C(F)(F)F)cc(C(F)(F)F)c3)c3ncc(N4CCOCC4)cn3)c(N(CC3CC3)CC3CC3)nc12`, the melting point was 123 to 124 °C.
In turn, `S=C1Nc2ccccc2C1(c1c[nH]c2ccccc12)C1CNc2ccccc21` (stereo not drawn) yielded a melting point above 260 °C.
For the molecule `COC(=O)c1ccc2c3cccc4cccc(c5ccc(C(=O)OC)c1c25)c43`, the melting point lay in the range of 256 to 257 °C.
Turning to `C[Si](C)(C)CCOCn1ccc2c(=O)[nH]ncc21`, the melting point fell in the range of 147 to 148 °C.
The figure for `O=C(Nc1cccc2c1C(=O)c1c-2n[nH]c1-c1ccc(C(=O)NC2CN3CCC2CC3)s1)NN1CCOCC1` (stereo not drawn) is 245 to 246 °C; for `Cc1[nH]c(=O)[nH]c1C(=O)c1ccc(F)cc1` it is 289 to 292 °C.
The figure for `CN(C)CCn1c(-c2ccc(Cl)cc2)cc2c1CCSC2` is 91.5 to 92.5 °C; for `CCCc1c(OCC(O)COc2ccc(C(=O)O)cc2Br)ccc(C(C)=O)c1O` (stereo not drawn) it is 93 to 95 °C; for `O=C(SC1CCCC1C(=O)N1CCC[C@H]1C(=O)O)c1ccccc1` (stereo partly drawn) it is 68 to 70 °C.
`CCOC(=O)c1cn(C23CC(C2)C3)c2cc(Cl)c(F)cc2c1=O` had a melting point of 223 to 225 °C.
For the molecule `COC(C)=CC(=O)NC1(C)CCCCC1`, the melting point came out at 105 °C.
The molecule `Cc1cc(-c2ncc(OC3SCC(O)C(O)C3O)cc2F)ccn1` (stereo not drawn) displayed a melting point of 143 °C.
`CCOC(=O)Cn1c(=O)n(Cc2ccc(Cl)c(Cl)c2)c(=O)c2ccccc21` displayed a melting point of 121 to 122 °C.
Regarding `C[C@@H](NC(=O)C1(C)CC1)c1ccc2ccccc2c1`, the melting point was 91 °C.
Turning to `CC(=O)NC1CC(C)(C)NC(C)(C)C1`, the melting point was 100 to 102 °C.
The result for `CC(C)c1ccccc1N1/C(=N\N=C/c2ccc(-c3ncn(-c4ccc(OC(F)(F)F)cc4)n3)cc2)SCC1(C)O` (stereo not drawn) reads 114 to 116 °C.
